Test results reported in US6750244B2, “Compounds active at a novel site on receptor-operated calcium channels useful for treatment of neurological disorders and diseases” (NPS Pharmaceuticals, Inc., priority 1993, dated 2004).
Read-outs that look alike come from different tables or passages of the source. Marks after values point to notes of the source that are not given here.

Columns and labels:
NMDA receptor [1] = assay: Inhibition of NMDA/glycine-induced increases in intracellular calcium in cultured rat cerebellar granule cells (RCGC); type: cell-based; details: NMDA/glycine-induced increases in intracellular calcium, cultured rat cerebellar granule cells; read-out: IC50 (μM) vs. NMDA
induction of LTP = test system: induction of LTP; set-up: species or system rat; details: for induction of LTP (p<0.05): slices superfused 30-60 min
motor performance = assay: Acute motor impairment (rotorod) in mice; details: Frings mice; for TD50, acute motor impairment: i.c.v. injection
Procedure: (§1) In this assay, Frings and CF1 mice were injected with test compound and placed on a knurled rod which rotated at a speed of 6 rpm. The ability of the mice to maintain equilibrium for long periods of time was determined; those mice that were unable to maintain equilibrium on the rotorod for 1 min in each of 3 trials were considered impaired.

[2] = test system: mean arterial blood pressure; details: for no effect on mean arterial blood pressure / no (significant) cardiovascular activity at doses up to / no significant cardiovascular activity in anesthetized rats at doses up to: i.v.
[3] = test system: NMDA receptor-ionophore complex (site labeled by [3H]MK-801); assay: Inhibition of [3H]MK-801 binding in rat cortical/hippocampal washed membrane preparations; details: for IC50: read-out: IC50 (μM) vs. [3H]MK-801, rat cortical/hippocampal washed membranes
sound-induced seizures = assay: Sound-induced seizures in Frings mice (reflex epilepsy); type: in vivo; details: for IC50, prevention of sound-induced seizures: intracerebroventricular (i.c.v.) injection; for ED50: Mus musculus, ip, Frings mice
NMDA receptor [4] = details: rat hippocampal slices
Procedure: Glutamate-mediated transmission at synapses of Schaffer collateral fibers and CA1 pyramidal cells was measured in slices of rat brain containing the hippocampus. This assay measures electrophysiologically the postsynaptic depolarization caused by the presynaptic release of glutamate, and can readily distinguish synaptic transmission mediated by NMDA or AMPA receptors.

focal ischemic stroke = assay: Rat model of focal ischemic stroke (vessel occlusion); type: in vivo, rats; details: i.p. 2 mg/kg 30 min prior to vessel occlusion and 2 mg/kg 3 hr post-occlusion
serotonin uptake site = target: T1, serotonin uptake site (Rattus norvegicus, UniProt P31652); assay: Serotonin uptake binding assay: [3H]citalopram binding to rat forebrain membranes
T1 construct: from tissue; host or cells: rat forebrain membranes (per the assay title)

L-type calcium channel = test system: T2, L-type calcium channel; assay: Inhibition of KCl depolarization-induced increases in intracellular calcium in cultured rat cerebellar granule cells; type: cell-based; details: cultured rat cerebellar granule cells; read-out: L-type calcium channel: estimated IC50, KCl depolarization-induced increases in intracellular calcium
T2 construct: L-type calcium channel: estimated IC50, KCl depolarization-induced increases in intracellular calcium; other: cultured
Text: The ability of arylalkylamines to inhibit dihydropyridine-sensitive Ca^2+ channels was examined in cerebellar granule cells and a rat aortic smooth muscle cell line, A7r5 cells.

[5] = target: T3, norepinephrine uptake site (Rattus norvegicus, UniProt Q63380); assay: Norepinephrine uptake binding assay: [3H]desipramine binding to rat cortical membranes
T3 construct: from tissue; host or cells: rat cortical membranes (per the assay title)

in vivo = details: mouse, in vivo, ip
Procedure: as §1

[6] = test system: central muscarinic cholinergic receptor; type: binding, rat
dopamine uptake site = target: T4, dopamine uptake site (Cavia porcellus, UniProt H0WCX4); assay: Dopamine uptake binding assay: [3H]WIN-35,428 binding to guinea pig striatal membranes
T4 construct: from tissue; host or cells: guinea pig striatal membranes (per the assay title)

seizure threshold = assay: i.v. Metrazol test (seizure threshold) in mice; type: in vivo
[7] = test system: maximal electroshock-induced seizures; assay: Maximal electroshock-induced seizures in mice; type: in vivo; details: Mus musculus, ip; mice

T4 sequence (H0WCX4 1-619): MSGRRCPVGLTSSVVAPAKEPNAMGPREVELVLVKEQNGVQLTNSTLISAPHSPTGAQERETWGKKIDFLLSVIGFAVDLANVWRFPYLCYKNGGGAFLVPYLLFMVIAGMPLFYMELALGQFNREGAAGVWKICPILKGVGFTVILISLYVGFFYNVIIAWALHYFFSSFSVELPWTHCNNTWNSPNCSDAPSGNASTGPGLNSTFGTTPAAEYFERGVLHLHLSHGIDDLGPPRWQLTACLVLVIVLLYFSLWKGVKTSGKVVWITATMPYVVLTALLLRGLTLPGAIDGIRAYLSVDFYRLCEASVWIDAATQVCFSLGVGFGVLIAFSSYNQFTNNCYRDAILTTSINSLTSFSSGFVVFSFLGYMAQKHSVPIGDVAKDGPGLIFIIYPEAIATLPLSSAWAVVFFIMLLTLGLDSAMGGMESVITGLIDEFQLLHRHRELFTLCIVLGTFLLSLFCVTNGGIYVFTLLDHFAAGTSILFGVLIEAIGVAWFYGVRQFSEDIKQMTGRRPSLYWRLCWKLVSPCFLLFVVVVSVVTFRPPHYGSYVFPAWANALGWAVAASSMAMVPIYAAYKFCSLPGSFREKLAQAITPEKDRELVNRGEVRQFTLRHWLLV
T1 sequence (P31652 whole entry): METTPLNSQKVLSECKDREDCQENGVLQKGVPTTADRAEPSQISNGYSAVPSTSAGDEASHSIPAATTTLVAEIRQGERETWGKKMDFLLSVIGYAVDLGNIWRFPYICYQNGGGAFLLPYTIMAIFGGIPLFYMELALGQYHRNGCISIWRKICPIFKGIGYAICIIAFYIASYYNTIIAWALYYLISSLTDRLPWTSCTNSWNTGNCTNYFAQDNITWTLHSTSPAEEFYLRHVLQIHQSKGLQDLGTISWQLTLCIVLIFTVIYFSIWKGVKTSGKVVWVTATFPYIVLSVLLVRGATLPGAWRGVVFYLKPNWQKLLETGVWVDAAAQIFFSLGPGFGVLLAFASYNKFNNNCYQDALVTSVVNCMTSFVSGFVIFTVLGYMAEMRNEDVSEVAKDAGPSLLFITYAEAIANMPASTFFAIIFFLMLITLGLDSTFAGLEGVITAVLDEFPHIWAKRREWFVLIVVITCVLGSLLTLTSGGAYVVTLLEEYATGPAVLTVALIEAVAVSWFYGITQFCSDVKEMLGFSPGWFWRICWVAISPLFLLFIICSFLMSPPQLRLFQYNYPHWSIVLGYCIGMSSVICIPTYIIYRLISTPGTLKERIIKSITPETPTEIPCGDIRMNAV
T3 sequence (Q63380 1-617): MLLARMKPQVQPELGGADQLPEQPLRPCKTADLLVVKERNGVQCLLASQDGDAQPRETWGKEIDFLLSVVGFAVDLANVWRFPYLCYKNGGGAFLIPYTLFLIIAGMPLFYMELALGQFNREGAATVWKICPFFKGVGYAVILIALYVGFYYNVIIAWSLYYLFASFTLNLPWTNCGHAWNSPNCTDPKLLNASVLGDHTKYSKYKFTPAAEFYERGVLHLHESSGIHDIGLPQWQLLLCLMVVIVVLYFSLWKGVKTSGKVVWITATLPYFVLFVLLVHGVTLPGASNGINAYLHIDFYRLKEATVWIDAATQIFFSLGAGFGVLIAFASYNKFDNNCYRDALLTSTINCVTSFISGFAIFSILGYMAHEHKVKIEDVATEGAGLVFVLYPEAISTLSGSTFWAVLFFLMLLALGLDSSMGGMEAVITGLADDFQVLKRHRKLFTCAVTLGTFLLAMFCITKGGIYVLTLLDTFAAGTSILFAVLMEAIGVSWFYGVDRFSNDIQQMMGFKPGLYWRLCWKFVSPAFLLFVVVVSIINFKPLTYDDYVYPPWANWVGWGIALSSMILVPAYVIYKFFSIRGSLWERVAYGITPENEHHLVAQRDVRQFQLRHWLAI

Row | Structure (SMILES) | IC50 (NMDA receptor [1]) | IC50 [3] | Monoamine uptake binding assays: serotonin uptake binding assay, percent block (serotonin uptake site; at 0.1 μM) | Monoamine uptake binding assays: serotonin uptake binding assay, percent block (serotonin uptake site; at 10 μM) | Monoamine uptake binding assays: norepinephrine uptake binding assay, percent block ([5]; at 0.1 μM) | Monoamine uptake binding assays: norepinephrine uptake binding assay, percent block ([5]; at 10 μM) | Central muscarinic cholinergic receptor: percent block of [3H]QNB binding ([6]; at 0.1 μM) | Central muscarinic cholinergic receptor: percent block of [3H]QNB binding ([6]; at 10 μM) | Monoamine uptake binding assays: dopamine uptake binding assay, percent block (dopamine uptake site; at 0.1 μM) | Monoamine uptake binding assays: dopamine uptake binding assay, percent block (dopamine uptake site; at 10 μM) | ED50 (sound-induced seizures) | other results
1 | NC(CCCP(=O)(O)O)C(=O)O (stereo not drawn) [AP5, reference compound] | 15 µM |  |  |  |  |  |  |  |  |  |  | induction of LTP (p<0.05) (induction of LTP): significantly blocked
2 | NC(CCCCCP(=O)(O)O)C(=O)O (stereo not drawn) [AP7, reference compound] |  |  |  |  |  |  |  |  |  |  |  | induction of LTP (p<0.05) (induction of LTP): significantly blocked
3 | NCCCNCCCNCCCNC(=O)Cc1c[nH]c2ccc(F)cc12 [Compound 9] | 1.2 µM | > 100 µM |  |  |  |  |  |  |  |  |  | TD50, acute motor impairment (motor performance): 14.8 µg; Drop in Mean Arterial Blood Pressure ([2]; 4.5 μmoles/kg i.v., rats): 75 mm Hg at; Drop in Mean Arterial Blood Pressure: duration ([2]; 4.5 μmoles/kg i.v., rats): i.v., 90 min; duration of the hypotensive effect ([2]; systemic administration in rats): approximately 30 min; % inhibition of [3H]MK-801 binding at the stated concentration (IC50 study incomplete) ([3]; at 100 μM): (10% at 100 μM)^d; IC50, prevention of sound-induced seizures (sound-induced seizures): 4.77 µg; Suppression of NMDA Receptor-Mediated Synaptic Transmission (concentration which suppresses) (NMDA receptor [4]): 10 to 100 µM; LTP Assay (block of the induction of LTP) (induction of LTP; at 300 μM): no block
4 | NCCCOCCCCOCCCNC(=O)Cc1c[nH]c2ccc(F)cc12 [Compound 12] | 6 µM | 98 µM |  |  |  |  |  |  |  |  |  | TD50, acute motor impairment (motor performance): 30.2 µg; no effect on mean arterial blood pressure / no (significant) cardiovascular activity at doses up to ([2]; rats): ≤ 37.3 µmol/kg; no effect on mean arterial blood pressure / no (significant) cardiovascular activity at doses up to ([2]; rats, listed as Compounds 12): up to 37.3 μmoles/kg; IC50, prevention of sound-induced seizures (sound-induced seizures): 12.2 µg
5 | NCCCOCCCCOCCCNC(=O)Cc1cccc2ccccc12 [Compound 14] | 8.8 µM |  |  |  |  |  |  |  |  |  |  | TD50, acute motor impairment (motor performance): 30.8 µg; IC50, prevention of sound-induced seizures (sound-induced seizures): 13.9 µg
6 | CC(CN)C(c1cccc(Cl)c1)c1cccc(Cl)c1 (stereo not drawn) [Compound 46] | 0.013 µM | 5.2 µM | 10^g10% at | 0.1^h75% at | 10^f7% at | 0.1^g64% at | 33% at. | 0.189% at | 40% at | 0.1^f97% at | 25 mg/kg | neuroprotectant activity in a rat model of focal ischemic stroke (focal ischemic stroke): no significant neuroprotectant activity; IC50 (L-type calcium channel): 676 nM; TD50 (in vivo; Frings): 18 to 21 mg/kg
7 | C[C@@H](N)CC(c1cccc(F)c1)c1cccc(F)c1 [Compound 51, 3,3-bis(3-fluorophenyl)-1-methyl-1-propylamine] | 1.1 µM | 4.5 µM |  |  |  |  |  |  |  |  | 9.1 mg/kg | TD50 (motor impairment) (motor performance; i.p.): 13.6 mg/kg
8 | Cc1ccc(F)cc1C(CCN)c1cc(F)ccc1C [Compound 58, 3,3-bis(3-fluoro-6-methylphenyl)-1-propylamine] | 0.028 µM | 0.203 µM | 10^g27% at | 0.1^h95% at | 10^f1% at | 0.1^g67% at | 1% at | 0.148% at | 0% at | 0.1^f45% at | 0.9 mg/kg | neuroprotectant activity in a rat model of focal ischemic stroke (focal ischemic stroke): no significant neuroprotectant activity; IC50 (L-type calcium channel): 2600 nM; TD50 (in vivo; Frings): 14.5 mg/kg; no significant cardiovascular activity in anesthetized rats at doses up to [2]: up to 2 mg/kg
9 | CCNCCC(c1cccc(F)c1)c1cccc(F)c1 [Compound 59, N-ethyl-3,3-bis(3-fluorophenyl)-1-propylamine] | 0.272 µM | 0.453 µM | 10^g14% at | 0.1^h86% at | 10^f7% at | 0.1^g51% at | 9% at | 0.187% at | 2% at | 0.1^f78% at | 2.7 mg/kg | neuroprotectant activity in a rat model of focal ischemic stroke (focal ischemic stroke): no significant neuroprotectant activity; TD50 (in vivo; Frings): 7.8 mg/kg; no significant cardiovascular activity in anesthetized rats at doses up to [2]: up to 10 mg/kg; seizure threshold, i.v. Metrazol test (seizure threshold; 11.7 mg/kg i.p.): a reduction in seizure threshold
10 | N[C@H]1CCCC1C(c1cccc(F)c1)c1cccc(F)c1 (stereo partly drawn) [Compound 63] | 0.093 µM | 0.245 µM | 10^g13% at | 0.1^h85% at | 10^f7% at | 0.1^g76% at | 11% at | 0.181% at | 64% at | 0.1^f98% at |  | IC50 (L-type calcium channel): 1900 nM
11 | NC(=O)CC(c1cccc(F)c1)c1cccc(F)c1 [Compound 151, 3,3-Bis(3-fluorophenyl)propanamide] | 54.9 µM | > 100 µM |  |  |  |  |  |  |  |  |  | TD50 (in vivo): 108 mg/kg; ED50 [7]: 36.5 mg/kg; seizure threshold, i.v. Metrazol test (seizure threshold; 36.5 and 108 mg/kg i.p.): a significant increase in seizure threshold
12 | CC(C(O)c1ccc(O)cc1)N1CCC(Cc2ccccc2)CC1 (stereo not drawn) [ifenprodil, reference compound] |  |  |  |  |  |  |  |  |  |  |  | induction of LTP (p<0.05) (induction of LTP): significantly blocked
